# In US9758492B2, “IDO inhibitors” (Bristol-Myers Squibb Company, priority 2013, dated 2017):
# Molecular target: IDO (Homo sapiens, UniProt P14902)
# Test: LLE_IDO_ABS_DR (IDO assay)
# Sequence of IDO (P14902 whole entry): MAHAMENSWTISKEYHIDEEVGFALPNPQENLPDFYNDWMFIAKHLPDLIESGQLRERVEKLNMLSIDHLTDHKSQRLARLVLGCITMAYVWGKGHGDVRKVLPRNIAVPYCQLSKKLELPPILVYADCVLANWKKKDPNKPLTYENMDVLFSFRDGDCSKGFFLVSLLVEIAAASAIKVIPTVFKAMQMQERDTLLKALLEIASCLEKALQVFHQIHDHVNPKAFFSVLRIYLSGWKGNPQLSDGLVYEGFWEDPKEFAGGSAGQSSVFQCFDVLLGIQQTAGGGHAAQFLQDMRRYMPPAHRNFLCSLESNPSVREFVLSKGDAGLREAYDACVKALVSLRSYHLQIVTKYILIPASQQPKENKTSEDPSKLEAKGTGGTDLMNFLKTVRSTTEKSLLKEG
row,SMILES,IC50
1,"Cc1ccc(NC(=O)Nc2cc(-c3cc(F)ccc3C(=O)O)ccc2N(CCC(F)(F)F)Cc2ccccc2)cc1 [Example 9, 4′-(Benzyl(3,3,3-trifluoropropyl)amino)-5-fluoro-3′-(3-(p-tolyl)ureido)-[1,1′-biphenyl]-2-carboxylic acid]",0.35 µM
2,"C#Cc1ccccc1NC(=O)Nc1cc(-c2ccccc2-c2nnn[nH]2)ccc1N(CC(C)C)CC(C)C [Example 277, 1-(4-(diisobutylamino)-2′-(1H-tetrazol-5-yl)-[1,1′-biphenyl]-3-yl)-3-(2-ethynylphenyl)urea]",0.16 µM
3,"C#CCOc1cccc(NC(=O)Nc2cc(-c3ccccc3-c3nnn[nH]3)ccc2N(CC(C)C)CC(C)C)c1 [Example 242, 1-(4-(diisobutylamino)-2′-(1H-tetrazol-5-yl)-[1,1′-biphenyl]-3-yl)-3-(3-(prop-2-yn-1-yloxy)phenyl)urea]",0.00472 µM
4,"COc1ccc(-c2ccc(N(C)c3ccccc3C(C)(C)C)c(NC(=O)Nc3ccccc3F)c2)cc1C(=O)O [Example 209, 4′-((2-(tert-butyl)phenyl) (methyl)amino)-3′-(3-(2-fluorophenyl)ureido)-4-methoxy-[1,1′-biphenyl]-3-carboxylic acid]",0.56 µM
5,"CC(C)CN(c1ccc(-c2ccccc2C(=O)O)cc1NC(=O)Nc1ccccc1C(F)(F)F)C1CCCCC1 [Example 162, 4′-(cyclohexyl (isobutyl)amino)-3′-(3-(2-(trifluoromethyl)phenyl)ureido)biphenyl-2-carboxylic acid]",1.27 µM
6,"CC(C)CN(CCC1CC1)c1ccc(-c2cc(F)ccc2C(=O)O)cc1NC(=O)Nc1ccccc1F [Example 135, 4′-((2-cyclopropylethyl) (isobutyl)amino)-5-fluoro-3′-(3-(2-fluorophenyl)ureido)biphenyl-2-carboxylic acid]",0.02 µM
7,"Cc1ccc(NC(=O)Nc2cc(-c3ccccc3NS(=O)(=O)CC(F)(F)F)ccc2N(CC(C)C)CC(C)C)cc1 [Example 84, N-(4′-(diisobutylamino)-3′-(3-p-tolylureido)biphenyl-2-yl)-2,2,2-trifluoroethane-sulfonamide]",2.11 µM
8,"CCC1CCCCN1c1ccc(-c2ccccc2C(=O)O)cc1NC(=O)Nc1ccccc1F (stereo not shown) [Example 116, 4′-(2-ethylpiperidin-1-yl)-3′-(3-(2-fluorophenyl)ureido) biphenyl-2-carboxylic acid]",2.34 µM
9,"CC(C)CN(CC(C)C)c1ccc(-c2ccccc2-c2nnn[nH]2)cc1NC(=O)Nc1ccc(F)cc1OC(C)C [Example 272, 1-(4-(diisobutylamino)-2′-(1H-tetrazol-5-yl)-[1,1′-biphenyl]-3-yl)-3-(4-fluoro-2-isopropoxyphenyl)urea]",2.72 µM
10,"Cc1ccc(NC(=O)Nc2cc(-c3ccccc3-c3nnn[nH]3)ccc2N(CCC(F)(F)F)CC(C)C)cc1 [Example 199, 1-(4-(isobutyl(3,3,3-trifluoropropyl)amino)-2′-(1H-tetrazol-5-yl)-[1,1′-biphenyl]-3-yl)-3-(p-tolyl)urea]",0.06 µM
11,"CC(C)CN(CC(C)C)c1ccc(-c2ccccc2-c2nnn[nH]2)cc1NC(=O)Nc1ccc2sccc2c1 [Example 259, 1-(benzo[b]thiophen-5-yl)-3-(4-(diisobutylamino)-2′-(1H-tetrazol-5-yl)-[1,1′-biphenyl]-3-yl)urea]",0.00244 µM
12,"CCCN(Cc1ccccc1)c1ccc(-c2ccccc2C(=O)O)cc1NC(=O)Nc1ccc(C)cc1 [Example 187, 4′-(benzyl(propyl)amino)-3′-(3-(p-tolyl)ureido)-[1,1′-biphenyl]-2-carboxylic acid]",0.02 µM
13,"Cc1ccc(NC(=O)Nc2cc(-c3ccccc3-c3nnn[nH]3)ccc2N(CCc2ccccc2)CCC(F)(F)F)cc1 [Example 334, 1-(4-(phenethyl(3,3,3-trifluoropropyl)amino)-2′-(1H-tetrazol-5-yl)-[1,1′-biphenyl]-3-yl)-3-(p-tolyl)urea]",0.02 µM
14,"CC(C)CN(CCC(C)C(F)(F)F)c1ccc(-c2ccccc2-c2nnn[nH]2)cc1NC(=O)Nc1ccccc1F (stereo not shown) [Example 201, 1-(2-fluorophenyl)-3-(4-(isobutyl(4,4,4-trifluoro-3-methylbutyl)amino)-2′-(1H-tetrazol-5-yl)-[1,1′-biphenyl]-3-yl)urea]",0.00446 µM

# Further lines, results first:
row,IC50,SMILES
1,1.23 µM,"COc1cc(NC(=O)Nc2cc(-c3ccccc3-c3nnn[nH]3)ccc2N(CC(C)C)CC(C)C)ccc1F [Example 252, 1-(4-(diisobutylamino)-2′-(1H-tetrazol-5-yl)-[1,1′-biphenyl]-3-yl)-3-(4-fluoro-3-methoxyphenyl)urea]"
2,1.21 µM,"Cc1ccc(NC(=O)Nc2cc(-c3ccccc3-c3nnn[nH]3)ccc2N(Cc2ccccc2)CC(C)C)cc1 [Example 289, 1-(4-(Benzyl(isobutyl)amino)-2′-(1H-tetrazol-5-yl)-[1,1′-biphenyl]-3-yl)-3-(p-tolyl)urea]"
3,0.15 µM,"Cc1ccc(NC(=O)Nc2cc(-c3cc(F)ccc3C(=O)O)ccc2N(Cc2ccccc2)CC(F)F)cc1 [Example 21, 4′-(Benzyl(2,2-difluoroethyl)amino)-5-fluoro-3′-(3-(p-tolyl)ureido)-[1,1′-biphenyl]-2-carboxylic acid]"
4,0.11 µM,"Cc1ccc(NC(=O)Nc2cc(-c3ccc(F)cc3C(=O)O)ccc2N(CC(C)C)CC(C)C)cc1 [Example 70, 4′-(diisobutylamino)-4-fluoro-3′-(3-p-tolylureido)biphenyl-2-carboxylic acid]"
5,0.03 µM,"CCCN(c1ccc(-c2ccccc2C(=O)O)cc1NC(=O)Nc1ccccc1F)C1CCCC1 [Example 168, 4′-(cyclopentyl(propyl)amino)-3′-(3-(2-fluorophenyl)ureido) biphenyl-2-carboxylic acid]"
6,1.83 µM,"CC(C)CN(CC(C)C)c1ccc(-c2ccccc2-c2nnn[nH]2)cc1NC(=O)Nc1ccccc1N1CCCCC1 [Example 270, 2-(4-(diisobutylamino)-2′-(1H-tetrazol-5-yl)-[1,1′-biphenyl]-3-yl)-3-(2-(piperidin-1-yl)phenyl)urea]"
7,0.05 µM,"Cc1ccc(NC(=O)Nc2cc(-c3ccccc3-c3nnn[nH]3)ccc2Nc2ccccc2C(C)(C)C)cc1 [Example 208, 1-(4-((2-(tert-butyl)phenyl)amino)-2′-(1H-tetrazol-5-yl)-[1,1′-biphenyl]-3-yl)-3-(p-tolyl)urea]"
8,1.74 µM,"COc1ccc(-c2ccc(N(CC(C)C)CC(C)C)c(NC(=O)Nc3ccc(C)cc3)c2)c(NS(=O)(=O)C(F)(F)F)c1 [Example 71, N-(4′-(diisobutylamino)-4-methoxy-3′-(3-p-tolylureido)biphenyl-2-yl)-1,1,1-trifluoromethane-sulfonamide]"
9,0.37 µM,"Cc1ccc(NC(=O)Nc2c(N(CC(C)C)CC(C)C)ccc(-c3ccccc3C(=O)O)c2F)cc1 [Example 26, 4′-(Diisobutylamino)-2′-fluoro-3′-(3-(p-tolyl)ureido)-[1,1′-biphenyl]-2-carboxylic acid]"
10,0.18 µM,"Cc1ccc(NC(=O)Nc2cc(-c3ccccc3C(=O)O)ccc2N(CCC(F)(F)F)Cc2ccccc2)cc1 [Example 8, 4′-(Benzyl(3,3,3-trifluoropropyl)amino)-3′-(3-(p-tolyl)ureido)-[1,1′-biphenyl]-2-carboxylic acid]"
11,7.77 µM,"Cc1ccc(NC(=O)Nc2cc(-c3ccccc3-c3nnn[nH]3)ccc2N2CCC(F)(F)C2)cc1 [Example 315, 1-(4-(3,3-difluoropyrrolidin-1-yl)-2′-(1H-tetrazol-5-yl)-[1,1′-biphenyl]-3-yl)-3-(p-tolyl)urea]"
12,0.93 µM,"CC(C)CN(CC(C)C)c1ccc(-c2ccccc2-c2nnn[nH]2)cc1NC(=O)Nc1ccc(F)c(C#N)c1 [Example 250, 1-(3-Cyano-4-fluorophenyl-3-(4-diisobutylamino)-2′-(1H-tetrazol-5-yl)-[1,1′-biphenyl]-3-yl)urea]"
13,0.00592 µM,"CC(C)CN(c1ccc(-c2cc(F)ccc2C(=O)O)cc1NC(=O)Nc1ccccc1F)C1CCCCC1 [Example 125, 4′-(cyclohexyl(isobutyl)amino)-5-fluoro-3′-(3-(2-fluorophenyl)ureido) biphenyl-2-carboxylic acid]"
14,0.0054 µM,"Cc1ccc(NC(=O)Nc2cc(C3=C(c4nnn[nH]4)CCC3)ccc2N(CC(C)C)CC(C)C)cc1 [Example 164, 1-(5-(2-(1H-tetrazol-5-yl)cyclopent-1-enyl)-2-(diisobutylamino)phenyl)-3-p-tolylurea]"
15,0.01 µM,"COc1ccc(-c2ccc(N(CC(C)C)CC(C)C)c(NC(=O)Nc3ccc(C)cc3)c2)c(-c2nnn[nH]2)c1 [Example 117, 1-(4-(diisobutylamino)-4′-methoxy-2′-(1H-tetrazol-5-yl)biphenyl-3-yl)-3-p-tolylurea]"
16,0.18 µM,"O=C(Nc1ccc(C(F)(F)F)cc1F)Nc1cc(-c2ccccc2-c2nnn[nH]2)ccc1N(CCC(F)(F)F)Cc1ccc(F)cc1C(F)(F)F [Example 300, 1-(4-((4-fluoro-2-(trifluoromethyl)benzyl) (3,3,3-trifluoropropyl)amino)-2′-(1H-tetrazol-5-yl)-[1,1′-biphenyl]-3-yl)-3-(2-fluoro-4-(trifluoromethyl)phenyl)urea]"
17,0.01 µM,"CCCCN(CCCC)c1ccc(-c2cc(F)ccc2C(=O)O)cc1NC(=O)Nc1ccc(C)cc1 [Example 90, 4′-(dibutylamino)-5-fluoro-3′-(3-p-tolylureido)biphenyl-2-carboxylic acid]"
18,0.01 µM,"Cc1ccc(NC(=O)Nc2cc(-c3ccccc3C(=O)O)ccc2N(CC(C)C)CC(C)CC(F)(F)F)cc1 (stereo not shown) [Example 28, 4′-(Isobutyl(4,4,4-trifluoro-2-methylbutyl)amino)-3′-(3-(p-tolyl)ureido)-[1,1′-biphenyl]-2-carboxylic acid]"
19,0.41 µM,"O=C(Nc1ccc(OC(F)(F)F)cc1)Nc1cc(-c2ccccc2-c2nnn[nH]2)ccc1N(CCC(F)(F)F)Cc1ccc(Cl)cc1Cl [Example 337, 1-(4-((2,4-dichlorobenzyl)(3,3,3-trifluoropropyl)amino)-2′-(1H-tetrazol-5-yl)-[1,1′-biphenyl]-3-yl)-3-(4-(trifluoromethoxy)phenyl)urea]"
20,0.34 µM,"O=C(Nc1ccc(F)cc1F)Nc1cc(-c2ccccc2-c2nnn[nH]2)ccc1N(CCC(F)(F)F)Cc1ccc(Cl)cc1Cl [Example 336, 1-(4-((2,4-dichlorobenzyl)(3,3,3-trifluoropropyl)amino)-2′-(1H-tetrazol-5-yl)-[1,1′-biphenyl]-3-yl)-3-(2,4-difluorophenyl) urea]"
